Several values for one entry are separate records, joined by “and”; a condition that tells them apart may be missing. Equal values may be shown once.
Experiments:
[1] = same conditions; cited from earlier work
[2] = n-Octanol/PBS distribution coefficient (logD7.4); assay type: physicochemical; settings: Table S1 individual values
Experimental: The log D7.4 values were determined as follows: 500 μL of n-octanol and 450 μL of PBS (pH 7.4) were premixed prior to the addition of 50 μL of the respective radiolabeled compound. The mixture was vigorously stirred for 30 min at 22 °C, and thereafter centrifuged for 5 min at 7,500g at 22 °C. Aliquots of the n-octanol and the aqueous phases were transferred to measuring tubes, and the activity counts in both phases were measured in a gamma counter (Hidex Deutschland Vertrieb GmbH, Germany). The logarithm of the quotient of the activity counts from the n-octanol and the aqueous phase was calculated, which is equal to the log D7.4 value.

[3] = Serum stability assay in human serum (radio-TLC/radio-HPLC); assay type: in vitro ADME; settings: 37 °C, radio-TLC; for Percentage of intact radioligand after 3 h in human serum: Table 1 mean ± SEM, Table S1 individual values
Experimental: To investigate the serum stability of the radiolabeled CHDTA-PSMA-1/2/3, human serum (frozen, from male AB clotted whole blood; Sigma-Aldrich/Merck) was centrifuged for 5 min at 20,000g at 4 °C after thawing. The supernatant was sterile filtrated (filter pore 0.2 μm). Four parts serum and one part of radioligand were incubated at 37 °C with shaking. Aliquots were taken after 3 h and for the ^111In-labeled compounds also after 24 and 48 h, and residual intact radiolabeled compound was determined by radio-TLC and/or radio-HPLC. For analysis by radio-HPLC, the aliquots were mixed with Supersol (mixture for protein precipitation that consists of 20% ethanol, 0.5% Triton X-100, 5 mM EDTA and 0.1% saponin)[72] and kept on ice for 5 min. After centrifugation for 5 min at 20,000g at 4 °C, the supernatant was used for radio-HPLC analysis.

[4] = molecular target: T1, PSMA (Homo sapiens, UniProt Q04609); assay: Competition binding assay, LNCaP cell homogenates, radioligand [177Lu]Lu-PSMA-617; settings: nonlabeled compounds; [177Lu]Lu-PSMA-617 12 nM; 37 °C, 60 min; Table 2 mean (SEM), Table S3 individual experiments and mean
T1 construct: Detection of endogenous PSMA expression in LNCaP and PC3 cells relative to β-actin expression by Western; host or cells: LNCaP human prostate carcinoma cells (monolayer, spheroids or Potter-Elvehjem homogenates)
Experimental: The binding affinity of the nonlabeled CHDT-PSMA-1/2/3, PSMA-1007, PSMA-617, and KuE was assessed in competition binding assays using LNCaP cell homogenates (∼1 × 10^6 cells/mL using Potter-Elvehjem) and the radioligand [^177Lu]Lu-PSMA-617 (n = 5 for CHDT-PSMA-1; n = 4 for CHDT-PSMA-2/3; n = 2 for PSMA-1007; n = 8 for PSMA-617; n = 6 for KuE). […] The assays were performed in a final volume of 200 μL. The incubation was stopped by washing the homogenate with cold PBS four times using a filter (Whatman GF/C, 90 min presoaked in 0.3% polyethylenimine) in a cell harvester (Brandel, USA). The radioactivity bound to the filter was measured in a gamma counter. Filter binding was determined for adjacent samples without cell homogenate. The experiments were performed two to four times in triplicates or quadruplicates. Inhibitory constants (Ki) were derived from nonlinear regression according to the model of “One site – Fit Ki” as implemented in GraphPad Prism 10. The Kd value of [^177Lu]Lu-PSMA-617 was determined in saturation binding assays using LNCaP cell homogenates to be 15.2 (±2.1) nM.

[5] = molecular target: T1, PSMA; assay: Saturation binding (surface-bound and internalized), intact LNCaP cells as monolayer
Source text: (§1) In addition to assessing the binding affinities for nonlabeled CHDT-PSMA-1/2/3, we sought to characterize the saturation binding of the Al^18F-, ^68Ga-, and ^111In-labeled compounds using LNCaP cells cultured in monolayers and as spheroids. The saturation binding curves for Al[^18F]F-CHDT-PSMA-1/2/3 are depicted in Figure 3, while the graphs for [^18F]PSMA-1007 and ^68Ga- and ^111In-labeled CHDT-PSMA-1/2/3 can be found in Figures S7–S9 in the Supporting Information. The binding parameters (Kd and Bmax) for Al[^18F]F-CHDT-PSMA-1/2/3 and [^18F]PSMA-1007 are summarized in Table 3 (for the ^68Ga- and ^111In-labeled compounds see Tables S4 and S5 in the Supporting Information). For the saturation binding assays, we recorded surface-bound radioligand (named “binding”), which refers to bound radioligand that can be removed by acid wash, and internalized or acid-resistant radioligand (named “internalization”), which refers to radioligand that remains cell-bound after acid wash. Consequently, two saturation binding plots were obtained and two sets of binding parameters (Kd/Bmax and Kd,int/Bmax,int) were derived.
(§2) For saturation assays in well plates, monolayers of LNCaP (sowing 5 × 10^4 cells/well in 48-well plates 2 days before the assay), as well as LNCaP spheroids were incubated with radiolabeled CHDT-PSMA-1/2/3 and PSMA-1007 (0.2 nM to 100 nM) with adjacent samples receiving KuE (0.8 mM) at 37 °C for 2 h. The number of experiments can be derived from the data in the Tables S4, S5, and S7 in the Supporting Information. After removing the incubation medium and washing of cells with ice-cold PBS (containing Mg^2+ and Ca^2+) the surface-bound activity was stripped with 4 °C cold acid-wash buffer (0.2 M glycine, 0.15 M NaCl, pH 3.0) for 10 min. The acid wash buffer was transferred from the wells to measuring tubes, as was the PBS buffer after washing once. Cytosolic activity (internalized radioligand) was determined after treatment with cell lysis buffer (1% SDS in 0.1 M NaOH) at 37 °C for 30 min. Cell surface and cytosolic activity were measured separately in a gamma counter. Time-depending internalization assays were performed only with cells in monolayer. The incubation (radioligand concentration 13 nM) for these assays was terminated after 10 min, 1 and 3 h, with ^111In and ^177Lu additionally after 24 and 48 h at 37 °C, respectively. During the internalization assays adjacent samples received KuE (0.8 mM) for PSMA blocking, methyl-β-cyclodextrin (MβCD; 3 mM) or KuE together with MβCD, 1 h before radioligand application. The number of experiments can be derived from the data of Figure S11 and associated table and from Table S8 in the Supporting Information.
(§3) Dissociations constants (Kd and Kd,int), as well as maximal binding capacities (Bmax and Bmax,int), were derived from specific binding data by nonlinear regression according to the model of “One site-specific binding” as implemented in GraphPad Prism 10. Protein content was determined using the bicinchoninic acid protein assay kit (Pierce, Thermo Scientific) to calculate the binding capacities in pmol/mg and for the time-depending internalization the internalized percent of administrated dose per μg protein (% AD/μg protein).

[6] = molecular target: T1, PSMA; assay: Saturation binding (surface-bound and internalized), LNCaP spheroids
Source text: as §1
For the formation of spheroids, the LNCaP cells were incubated overnight in a normal culture bottle with biocompatible nanoparticles ([…] with 80 μL of a suspension consisting of Au, Fe2O3 and poly-L-lysine called Nanoshuttle, Greiner Bio-One GmbH, Germany). After harvesting and cell counting, 10,000 cells/well of a 24-well plate or 7,000 cells/well of a 96-well plate (cell-repellent plates) were sown. The well plates were placed on matching plates with button magnets (Greiner Bio-One GmbH, Germany). The magnetized LNCaP cells formed suitable spheroids that were used after 5 d.
as §2, §3

[7] = pH 7.4, radiolabel Al^18F, Table 1 mean ± SEM of three experiments
[8] = pH 7.4, radiolabel ^68Ga, Table 1 mean ± SEM
[9] = pH 7.4, radiolabel ^111In, Table 1 mean ± SEM
[10] = Al^18F-labeled conjugate or [18F]PSMA-1007, acid-resistant fraction, read-out: Kd,int (internalization)
[11] = Al^18F-labeled conjugate or [18F]PSMA-1007, surface-bound
[12] = Al^18F-labeled conjugate or [18F]PSMA-1007, surface-bound, 37 °C, 2 h, read-out: Kd (binding)
[13] = Al^18F-labeled conjugate or [18F]PSMA-1007, surface-bound, read-out: Kd (binding)
[14] = [111In]In-labeled conjugate, surface-bound

T1 sequence (Q04609 whole entry): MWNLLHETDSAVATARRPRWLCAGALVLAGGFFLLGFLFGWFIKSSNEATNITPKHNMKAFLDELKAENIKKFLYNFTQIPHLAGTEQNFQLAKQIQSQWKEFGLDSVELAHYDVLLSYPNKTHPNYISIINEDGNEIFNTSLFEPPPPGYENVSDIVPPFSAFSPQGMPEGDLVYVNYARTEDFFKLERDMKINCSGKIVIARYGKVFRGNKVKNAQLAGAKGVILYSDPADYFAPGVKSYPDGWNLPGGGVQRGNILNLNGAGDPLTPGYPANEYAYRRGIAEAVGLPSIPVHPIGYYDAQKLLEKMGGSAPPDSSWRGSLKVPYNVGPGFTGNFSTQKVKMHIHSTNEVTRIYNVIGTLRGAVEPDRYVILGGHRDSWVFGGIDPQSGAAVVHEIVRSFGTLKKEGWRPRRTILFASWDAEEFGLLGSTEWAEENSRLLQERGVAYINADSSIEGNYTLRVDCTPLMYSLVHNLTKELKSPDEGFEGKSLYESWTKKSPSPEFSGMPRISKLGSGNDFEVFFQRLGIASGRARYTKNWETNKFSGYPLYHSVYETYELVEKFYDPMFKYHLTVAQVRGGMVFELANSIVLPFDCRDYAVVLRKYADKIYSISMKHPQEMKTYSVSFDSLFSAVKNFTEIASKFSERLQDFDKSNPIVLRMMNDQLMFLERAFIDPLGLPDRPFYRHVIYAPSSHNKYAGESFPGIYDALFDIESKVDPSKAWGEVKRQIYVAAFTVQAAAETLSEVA

Row | Structure (SMILES) | 64Cu-transchelation in human serum [1] | logD [2, 7] | logD [2, 8] | logD [2, 9] | Percentage of intact radioligand after 3 h in human serum ([3]; radiolabel Al^18F) | Percentage of intact radioligand after 3 h in human serum ([3]; radiolabel ^68Ga) | Percentage of intact radioligand after 3 h in human serum ([3]; radiolabel ^111In, 3 h) | Percentage of intact radioligand in human serum after 24 h (*) ([3]; radiolabel ^111In) | Percentage of intact radioligand in human serum after 48 h (**) ([3]; radiolabel ^111In) | Ki [4] | Kd [5, 10] [nM] | Bmax (binding) [5, 11] [pmol/mg] | Kd [5, 12] [nM] | Bmax,int (internalization) ([5]; [111In]In-labeled conjugate) | Kd [6, 10] [nM] | Bmax (binding) [6, 11] [pmol/mg] | Kd [6, 13] [nM] | Bmax,int (internalization) ([6]; [111In]In-labeled conjugate) | Bmax (binding) [6, 14] | other results
1 | O=C(O)CN1CCCN(CC(=O)O)CCN(CC(=O)O)CCCN(CC(=O)O)CC1 [TETA] | only minimal |  |  |  |  |  |  |  |  |  |  |  |  |  |  |  |  |  |  | 
2 | NC12CNCCNCC(N)(CNCCNC1)CNCCNC2 [diamSar] | only minimal |  |  |  |  |  |  |  |  |  |  |  |  |  |  |  |  |  |  | 
3 | O=C(O)CN1CCN(CC(=O)O)CCN(CC(=O)O)CCN(CC(=O)O)CC1 [DOTA] | only minimal |  |  |  |  |  |  |  |  |  |  |  |  |  |  |  |  |  |  | 
4 | O=C(O)CCC(NC(=O)NC(CCCCNC(=O)[C@@H](Cc1cccc2ccccc12)NC(=O)CCCCCn1cc(CN(CC(=O)O)[C@@H]2CCCC[C@H]2N(CC(=O)O)CC(=O)O)nn1)C(=O)O)C(=O)O (mixture of isomers) [CHDT-PSMA-2] |  | -3.34 | -3.11 | -3.44 | 99.3% and 98.7% and 99.1 ± 0.2% | 97.7% and 97.4% and 97.0% and 97.6 ± 0.1% | 99.6% and 98.3% and 98.6% and 98.8 ± 0.4% | 98.9% and 98.8% and 97.6% and 98.4 ± 0.4% | 99.9% and 98.5% and 97.6% and 98.7 ± 0.7% | 48.1 nM and 71.2 nM and 40.5 nM and 34.5 nM and 49 nM | 14.4 ± 4.8 | 1.33 ± 0.10 | 12.9 ± 4 | 0.25 pmol/mg and 0.17 pmol/mg and 0.21 pmol/mg | 15.7 ± 0.8 | 1.07 ± 0.13 | 15.8 ± 4.4 | 0.20 pmol/mg and 0.10 pmol/mg and 0.15 pmol/mg | 0.15 pmol/mg and 0.25 pmol/mg and 0.20 pmol/mg | 
5 | O=C(O)CCC(NC(=O)NC(CCCCNC(=O)Cn1cc(CN(CC(=O)O)[C@@H]2CCCC[C@H]2N(CC(=O)O)CC(=O)O)nn1)C(=O)O)C(=O)O (mixture of isomers) [CHDT-PSMA-1] |  | -3.6 | -3.36 | -4.23 | 98.9% and 99.0% and 98.8% and 98.9 ± 0.1% | 98.8% and 94.4% and 96.6 ± 2.2 % | 99.7% and 99.3% and 99.4% and 99.5 ± 0.1% | 99.8% and 99.5% and 99.6 ± 0.1% | 99.7% and 99.3% and 98.9% and 99.3 ± 0.2% | 85.5 nM and 120 nM and 86.9 nM and 152 nM and 132 nM and 115 nM | 18.4 ± 7.3 | 1.87 ± 0.57 | 26.4 ± 11 |  | 37.4 ± 10.7 | 1.49 ± 0.36 | 41.5 ± 26.4 | 0.03 pmol/mg and 0.06 pmol/mg and 0.04 pmol/mg |  | 
6 | O=C(O)CCC(NC(=O)NC(CCCCNC(=O)[C@H](Cc1ccc2ccccc2c1)NC(=O)[C@H]1CC[C@H](CNC(=O)CCCCn2cc(CN(CC(=O)O)[C@@H]3CCCC[C@H]3N(CC(=O)O)CC(=O)O)nn2)CC1)C(=O)O)C(=O)O (mixture of isomers) [CHDT-PSMA-3] |  | -3.43 | -3.09 | -3.87 | 99.2% and 99.6% and 99.3 ± 0.1% | 98.6% and 99.6% and 99.3% and 99.1 ± 0.4% | 99.5% and 98.8% and 99.2% and 99.2 ± 0.2% | 98.9% and 99.6% and 99.1 ± 0.2% | 99.9% and 99.5% and 98.7% and 99.4 ± 0.4% | 7.65 nM and 3.21 nM and 9.15 nM and 12.6 nM and 8.1 nM | 14.4 ± 7.3 | 2.18 ± 0.97 | 19.7 ± 8.4 | 0.65 pmol/mg and 0.49 pmol/mg and 0.57 pmol/mg | 36.4 ± 14.6 |  | 38.6 ± 25.8 | 0.31 pmol/mg and 0.33 pmol/mg and 0.32 pmol/mg | 0.21 pmol/mg and 0.40 pmol/mg and 0.30 pmol/mg | Bmax (binding) [5, 14]: 0.50 pmol/mg and 0.91 pmol/mg and 0.70 pmol/mg; Bmax,int (internalization) ([6]; [68Ga]Ga-labeled conjugate, only one assay): 0.75 pmol/mg
